The source of these data is patent publication US20250101041A1, “POSITIVE ALLOSTERIC MODULATORS OF THE MUSCARINIC ACETYLCHOLINE RECEPTOR M4” (Vanderbilt University, priority 2022, published 2025).

The assay addresses T1, human mAChR M4 (Homo sapiens, UniProt P08173).
T1 construct: expressed in transfected cells; host or cells: CHO-K1 (American Type Culture Collection), stably expressing hM4 and Gqi5
T1 sequence (P08173 1-479): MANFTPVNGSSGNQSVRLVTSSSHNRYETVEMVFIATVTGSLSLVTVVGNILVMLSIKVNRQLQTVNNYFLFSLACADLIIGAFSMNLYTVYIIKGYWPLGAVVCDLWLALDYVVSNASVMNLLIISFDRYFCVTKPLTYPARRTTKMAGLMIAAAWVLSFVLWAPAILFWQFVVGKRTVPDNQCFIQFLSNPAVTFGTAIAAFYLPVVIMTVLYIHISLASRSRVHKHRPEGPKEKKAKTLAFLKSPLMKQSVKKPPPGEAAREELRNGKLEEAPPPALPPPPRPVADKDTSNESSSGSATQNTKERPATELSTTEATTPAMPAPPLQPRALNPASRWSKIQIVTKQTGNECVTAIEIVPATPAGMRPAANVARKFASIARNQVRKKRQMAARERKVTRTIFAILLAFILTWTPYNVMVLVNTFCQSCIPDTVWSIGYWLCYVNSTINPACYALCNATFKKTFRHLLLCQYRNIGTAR
Put plainly: mAChR M4 cell-based functional assay: calcium mobilization (Fluo-4, FDSS), potentiation of EC20 acetylcholine response in hM4-Gqi5 CHO-K1 cells. As to conditions: human M4; for Emax at 30 µM: CHO-K1, % ACh maximum at 30 μM; for EC50: potentiation of EC20 acetylcholine response, calcium mobilization. In outline:
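CHO-K1 cells stably co-expressing human M4 and chimeric Gqi5, loaded with Fluo-4 AM (50 min, 37 °C). Compounds in 11-point 1:3 series added first; EC20 acetylcholine added at 144 s and again at 230 s. Calcium read on FDSS at 1 Hz; EC50 and Emax from four-parameter logistic fit of potentiated EC20 response.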

Regarding `Cc1cc2nccc(=O)n2nc1N1CCc2ncc(-c3ccc4nccn4c3)cc2C1` [Compound 1-53, 7-(3-(imidazo[1,2-a]pyridin-6-yl)-7,8-dihydro-1,6-naphthyridin-6(5H)-yl)-8-methyl-4H-pyrimido[1,2-b]pyridazin-4-one], the Emax at 30 µM came to 75% and the EC50 was 699 nM.

On to `Cc1cc2nccc(=O)n2nc1N1CCc2ncc(-c3ccnc(C4CC4)c3)cc2C1` [Compound 1-54, 7-(3-(2-cyclopropylpyridin-4-yl)-7,8-dihydro-1,6-naphthyridin-6(5H)-yl)-8-methyl-4H-pyrimido[1,2-b]pyridazin-4-one], for which the maximum response (Emax) at 30 µM was found to be 76% and the concentration giving a half-maximal response (EC50) was determined as 479 nM.

For `Cc1cc2nc(C(=O)NC3CN(CC(F)(F)F)C3)cc(=O)n2nc1N1CCc2ncc(C(F)(F)F)cc2C1` [Compound 1-55, 8-methyl-4-oxo-N-(1-(2,2,2-trifluoroethyl)azetidin-3-yl)-7-(3-(trifluoromethyl)-7,8-dihydro-1,6-naphthyridin-6(5H)-yl)-4H-pyrimido[1,2-b]pyridazine-2-carboxamide], the Emax at 30 µM is 94% and the EC50 was determined as 481 nM.

For the molecule `Cc1cc2nc(C(=O)N3CC(C)C3)cc(=O)n2nc1N1CCc2ncc(C(F)(F)F)cc2C1` [Compound 1-56, 8-methyl-2-(3-methylazetidine-1-carbonyl)-7-(3-(trifluoromethyl)-7,8-dihydro-1,6-naphthyridin-6(5H)-yl)-4H-pyrimido[1,2-b]pyridazin-4-one], the maximum response (Emax) at 30 µM came to 102% and the half-maximal effective concentration (EC50) was 281 nM.

In the case of `COc1cc(-c2cnc3c(c2)CN(c2nn4c(=O)ccnc4cc2C)CC3)c(Cl)cn1` [Compound 1-57, 7-(3-(5-chloro-2-methoxypyridin-4-yl)-7,8-dihydro-1,6-naphthyridin-6(5H)-yl)-8-methyl-4H-pyrimido[1,2-b]pyridazin-4-one], the maximal response (Emax) at 30 µM stood at 70% and the EC50 came to 735 nM.

For `Cc1cc2nccc(=O)n2nc1N1CCc2ncc(-c3cccnc3F)cc2C1` [Compound 1-58, 7-(3-(2-fluoropyridin-3-yl)-7,8-dihydro-1,6-naphthyridin-6(5H)-yl)-8-methyl-4H-pyrimido[1,2-b]pyridazin-4-one], the maximum response (Emax) at 30 µM was 88% and the concentration giving a half-maximal response (EC50) was determined as 397 nM.

For `Cc1cc2nccc(=O)n2nc1N1CCc2ncc(-c3ccc(F)c(Cl)c3)cc2C1` [Compound 1-59, 7-(3-(3-chloro-4-fluorophenyl)-7,8-dihydro-1,6-naphthyridin-6(5H)-yl)-8-methyl-4H-pyrimido[1,2-b]pyridazin-4-one], the Emax at 30 µM was 99% and the EC50 turned out to be 244 nM.

Consider `COc1ccc(-c2cnc3c(c2)CN(c2nn4c(=O)ccnc4cc2C)CC3)cn1` [Compound 1-60, 7-(3-(6-methoxypyridin-3-yl)-7,8-dihydro-1,6-naphthyridin-6(5H)-yl)-8-methyl-4H-pyrimido[1,2-b]pyridazin-4-one], for which the Emax at 30 µM was 104% and the half-maximal effective concentration (EC50) is 140 nM.

Regarding `Cc1ccc(-c2cnc3c(c2)CN(c2nn4c(=O)ccnc4c(C)c2C)CC3)cn1` [Compound 1-61, 8,9-Dimethyl-7-(3-(6-methylpyridin-3-yl)-7,8-dihydro-1,6-naphthyridin-6(5H)-yl)-4H-pyrimido[1,2-b]pyridazin-4-one], the maximal response (Emax) at 30 µM worked out at 96% and the EC50 is 71 nM.

`Cc1c(N2CCc3ncc(-c4cnn(C)c4)cc3C2)nn2c(=O)ccnc2c1C` [Compound 1-62, 8,9-dimethyl-7-(3-(1-methyl-1H-pyrazol-4-yl)-7,8-dihydro-1,6-naphthyridin-6(5H)-yl)-4H-pyrimido[1,2-b]pyridazin-4-one]: the maximal response (Emax) at 30 µM worked out at 89% and the 50% effective concentration (EC50) worked out at 128 nM.

In the case of `Cc1c(N2CCc3ncc(-c4ccnn4C)cc3C2)nn2c(=O)ccnc2c1C` [Compound 1-63, 8,9-dimethyl-7-(3-(1-methyl-1H-pyrazol-5-yl)-7,8-dihydro-1,6-naphthyridin-6(5H)-yl)-4H-pyrimido[1,2-b]pyridazin-4-one], the Emax at 30 µM is 97% and the EC50 worked out at 203 nM.

In the case of `Cc1c(N2CCc3ncc(C(F)(F)F)cc3C2)nn2c(=O)ccnc2c1C` [Compound 1-64, 8,9-dimethyl-7-(3-(trifluoromethyl)-7,8-dihydro-1,6-naphthyridin-6(5H)-yl)-4H-pyrimido[1,2-b]pyridazin-4-one], the maximal effect (Emax) at 30 µM was 102% and the EC50 is 91 nM.

Turning to `Cc1cncc(-c2cnc3c(c2)CN(c2nn4c(=O)ccnc4cc2C)CC3)c1` [Compound 1-65, 8-methyl-7-(3-(5-methylpyridin-3-yl)-7,8-dihydro-1,6-naphthyridin-6(5H)-yl)-4H-pyrimido[1,2-b]pyridazin-4-one], the Emax at 30 µM was 70% and the concentration giving a half-maximal response (EC50) is 656 nM.

`Cc1cc2nccc(=O)n2nc1N1CCc2ncc(-c3ccc(C(F)(F)F)nc3)cc2C1` [Compound 1-66, 8-methyl-7-(3-(6-(trifluoromethyl)pyridin-3-yl)-7,8-dihydro-1,6-naphthyridin-6(5H)-yl)-4H-pyrimido[1,2-b]pyridazin-4-one]: the Emax at 30 µM was found to be 77% and the concentration giving a half-maximal response (EC50) is 832 nM.

`Cc1cc2nccc(=O)n2nc1N1CCc2ncc(-c3ccc(C4CC4)nc3)cc2C1` [Compound 1-67, 7-(3-(6-cyclopropylpyridin-3-yl)-7,8-dihydro-1,6-naphthyridin-6(5H)-yl)-8-methyl-4H-pyrimido[1,2-b]pyridazin-4-one]: the maximal effect (Emax) at 30 µM amounted to 80% and the concentration for a half-maximal effect (EC50) was 328 nM.

As for `Cc1cc2nccc(=O)n2nc1N1CCc2ncc(-c3cccnc3)cc2C1` [Compound 1-68, 8-methyl-7-(3-(pyridin-3-yl)-7,8-dihydro-1,6-naphthyridin-6(5H)-yl)-4H-pyrimido[1,2-b]pyridazin-4-one], the Emax at 30 µM amounted to 84% and the EC50 was found to be 358 nM.

Regarding `Cc1cc(=O)n2nc(N3CCc4ncc(-c5cccnc5F)cc4C3)c(C)cc2n1` [Compound 1-69, 7-(3-(2-fluoropyridin-3-yl)-7,8-dihydro-1,6-naphthyridin-6(5H)-yl)-2,8-dimethyl-4H-pyrimido[1,2-b]pyridazin-4-one], the Emax at 30 µM was 87% and the half-maximal effective concentration (EC50) is 769 nM.

Regarding `COc1cncc(-c2cnc3c(c2)CN(c2nn4c(=O)cc(C)nc4cc2C)CC3)c1` [Compound 1-70, 7-(3-(5-methoxypyridin-3-yl)-7,8-dihydro-1,6-naphthyridin-6(5H)-yl)-2,8-dimethyl-4H-pyrimido[1,2-b]pyridazin-4-one], the maximal effect (Emax) at 30 µM was determined as 92% and the EC50 was determined as 274 nM.

For the molecule `COc1ccc(-c2cnc3c(c2)CN(c2nn4c(=O)cc(C)nc4cc2C)CC3)cn1` [Compound 1-71, 7-(3-(6-methoxypyridin-3-yl)-7,8-dihydro-1,6-naphthyridin-6(5H)-yl)-2,8-dimethyl-4H-pyrimido[1,2-b]pyridazin-4-one], the maximal effect (Emax) at 30 µM was found to be 90% and the concentration giving a half-maximal response (EC50) came out at 145 nM.

On to `Cc1cc(=O)n2nc(N3CCc4ncc(-c5ccc(C6CC6)nc5)cc4C3)c(C)cc2n1` [Compound 1-72, 7-(3-(6-cyclopropylpyridin-3-yl)-7,8-dihydro-1,6-naphthyridin-6(5H)-yl)-2,8-dimethyl-4H-pyrimido[1,2-b]pyridazin-4-one], for which the Emax at 30 µM was 75% and the concentration for a half-maximal effect (EC50) was 174 nM.

Turning to `Cc1cc(=O)n2nc(N3CCc4ncc(-c5ccc(C(F)(F)F)nc5)cc4C3)c(C)cc2n1` [Compound 1-73, 2,8-dimethyl-7-(3-(6-(trifluoromethyl)pyridin-3-yl)-7,8-dihydro-1,6-naphthyridin-6(5H)-yl)-4H-pyrimido[1,2-b]pyridazin-4-one], the Emax at 30 µM was determined as 77% and the concentration for a half-maximal effect (EC50) was determined as 457 nM.

As to `COc1cncc(-c2cnc3c(c2)CN(c2nn4c(=O)cc(C(F)(F)F)nc4cc2C)CC3)c1` [Compound 1-74, 7-(3-(5-methoxypyridin-3-yl)-7,8-dihydro-1,6-naphthyridin-6(5H)-yl)-8-methyl-2-(trifluoromethyl)-4H-pyrimido[1,2-b]pyridazin-4-one], the maximum response (Emax) at 30 µM was 102% and the 50% effective concentration (EC50) was 445 nM.

In the case of `COc1ccc(-c2cnc3c(c2)CN(c2nn4c(=O)cc(C(F)(F)F)nc4cc2C)CC3)cn1` [Compound 1-75, 7-(3-(6-methoxypyridin-3-yl)-7,8-dihydro-1,6-naphthyridin-6(5H)-yl)-8-methyl-2-(trifluoromethyl)-4H-pyrimido[1,2-b]pyridazin-4-one], the maximal response (Emax) at 30 µM was 46% and the EC50 turned out to be 1250 nM.

`Cc1ccc(-c2cnc3c(c2)CN(c2nn4c(=O)cc(C(=O)NC5(C#N)CC5)nc4cc2C)CC3)cn1` [Compound 1-76, N-(1-cyanocyclopropyl)-8-methyl-7-(3-(6-methylpyridin-3-yl)-7,8-dihydro-1,6-naphthyridin-6(5H)-yl)-4-oxo-4H-pyrimido[1,2-b]pyridazine-2-carboxamide]: the maximal effect (Emax) at 30 µM was found to be 79% and the EC50 is 149 nM.
